Biological target: T1, BRD4 (BD1) (Homo sapiens, UniProt O60885)
T1 construct: with relatively long constructs also being possible, preferably amino acids 44-168; made in house; host or cells: E. coli
Assay: Binding assay BRD4/acetylated peptide H4 (TR-FRET protein-protein interaction assay)
Description: Binding Assay BRD4/Acetylated Peptide H4 (“PRO”)
To assess the BRD4 binding of the substances described in the present application, their ability to inhibit the interaction between BRD4 (BD1) and acetylated histone H4 in a dose-dependent manner was quantified (Filippakopoulos et al., Cell, 2012, 149: 214-231).
For this purpose, use was made of a time-resolved fluorescence resonance energy transfer (TR-FRET) assay which measured binding between N-terminally His6-tagged BRD4 (BD1) (amino acids 67-152, with relatively long constructs also being possible, preferably amino acids 44-168) and a synthetic acetylated histone H4 (Ac—H4) peptide having the sequence GRGK(Ac)GGK(Ac)GLGK(Ac)GGAK(Ac)RHGSGSK-biotin. The recombinant BRD4 protein-produced according to Filippakopoulos et al., Cell, 2012, 149: 214-231—was expressed in E. coli and purified by (Ni-NTA) affinity and (Sephadex G-75) size exclusion chromatography. The Ac—H4 peptide is commercially available, for example from Biosyntan (Berlin, Germany). In a typical assay, 11 different concentrations of each substance (0.1 nM, 0.33 nM, 1.1 nM, 3.8 nM, 13 nM, 44 nM, 0.15 μM, 0.51 μM, 1.7 μM, 5.9 μM and 20 μM) were measured in duplicate on the same microtitre plate. To this end, 100-fold concentrated solutions in DMSO were prepared by serial dilution (1:3.4) of a 2 mM stock solution in a clear 384-well microtitre platte (Greiner Bio-One, Frickenhausen, Germany) 50 nl of these were transferred into a black test plate (Greiner Bio-One, Frickenhausen, Germany). The test was started by addition of 2 μl of a 2.5-fold concentrated BRD4 solution (final concentration usually 10 nM in the […] of the reaction volume) in aqueous assay buffer [50 mM HEPES pH 7.5. 50 mM sodium chloride (NaCl), 0.25 mM CHAPS and 0.05% serum albumin (BSA)] to the substances in the test plate. This was followed by a 10-minute incubation step at 22° C. to pre-equilibrate putative complexes between BRD4 and the substances.
The mixture was then incubated in the dark for one hour at 22° C. and then for at least 3 hours and at most overnight at 4° C. Formation of BRD4/Ac—H4 complexes was determined by measuring the resonance energy transfer from the streptavidin-Eu cryptate to the anti-6His-XL665 antibody in the reaction. To this end, the fluorescence emission was measured at 620 nm and 665 nm after excitation at 330-350 nm in a TR-FRET measuring device, for example a Rubystar or Pherastar (both from BMG Lab Technologies, Offenburg, Germany) or a Viewlux (Perkin-Elmer). The ratio of the emission at 665 nm and at […] was used as an indicator for the amount of BRD4/Ac—H4 complexes formed.
The data obtained (ratios) were normalized, with 0% inhibition corresponding to the mean of the measured values of a set of controls (usually 32 data points) comprising all reagents. Here, 50 nl of DMSO (100%) were used instead of test substances. An inhibition of 100% corresponded to the mean of the measured values of a set of controls (usually 32 data points) comprising all reagents except for BRD4. The IC50 was determined by regression analysis based on a 4-parameter equation (minimum, maximum, IC50, Hill; Y=Max+(Min−Max)/(1+(X/IC 50)^Hill)).

Row | IC50 | Structure (SMILES)
1 | 18900 nM | CNC(=O)N1N=C(c2ccc(-c3ccc(C(F)(F)F)nc3)cc2)c2cc(OC)c(OC)cc2C[C@H]1C [Example 50.2, (4R)-7,8-dimethoxy-N,4-dimethyl-1-{4-[6-(trifluoromethyl)pyridin-3-yl]phenyl}-4,5-dihydro-3H-2,3-benzodiazepine-3-carboxamide]
2 | 1490 nM | CNC(=O)N1N=C(c2ccc(N3CC(C)(O)C3)cc2)c2cc(OC)c(OC)cc2C[C@H]1C [Example 185.1, (4R)-1-[4-(3-hydroxy-3-methylazetidin-1-yl)phenyl]-7,8-dimethoxy-N,4-dimethyl-4,5-dihydro-3H-2,3-benzodiazepine-3-carboxamide]
3 | 2340 nM | CNC(=O)N1N=C(c2ccc(-c3c(C)nn(C)c3C)cc2)c2cc(OC(F)(F)F)ccc2C[C@H]1C [Example 249.2, (4R)-N,4-dimethyl-8-(trifluoromethoxy)-1-[4-(1,3,5-trimethyl-1H-pyrazol-4-yl)phenyl]-4,5-dihydro-3H-2,3-benzodiazepine-3-carboxamide]
4 | 17400 nM | CNC(=O)C1CCN(c2ccc(C3=NN(C(=O)NC)[C@H](C)Cc4cc(OC)c(OC)cc43)cc2)CC1 [Example 189.2, (4R)-7,8-dimethoxy-N,4-dimethyl-1-{4-[4-(methylcarbamoyl)piperidin-1-yl]phenyl}-4,5-dihydro-3H-2,3-benzodiazepine-3-carboxamide]
5 | 9890 nM | CNC(=O)N1N=C(c2ccc(N3CCN(C)CC3)cc2)c2cc(OC(F)(F)F)ccc2C[C@H]1C [Example 250.1, (4R)-N,4-dimethyl-1-[4-(4-methyl-1-piperazinyl)phenyl]-8-(trifluoromethoxy)-4,5-dihydro-3H-2,3-benzodiazepine-3-carboxamide]
6 | 780 nM | CNC(=O)N1N=C(c2ccc(-c3cccnc3Cl)cc2)c2cc(OC)c(OC)cc2C[C@H]1C [Example 4.1, (R)-1-[4-(2-chloropyridin-3-yl)phenyl]-7,8-dimethoxy-N,4-dimethyl-4,5-dihydro-3H-2,3-benzodiazepine-3-carboxamide]
7 | 1220 nM | CCNC(=O)N1N=C(c2ccc(N3CCN(C)CC3)cc2)c2cc(OC)c(OC)cc2C[C@@H]1C [Example 261.1, (4S)—N-Ethyl-7,8-dimethoxy-4-methyl-1-[4-(4-methylpiperazin-1-yl)phenyl]-4,5-dihydro-3H-2,3-benzodiazepine-3-carboxamide]
8 | 11200 nM | CC[C@@H]1Cc2cc(OC)c(OC)cc2C(c2ccc(N3CCN(S(C)(=O)=O)CC3)cc2)=NN1C(=O)NC [Example 203.2, (4R)-4-ethyl-7,8-dimethoxy-N-methyl-1-{4-[4-(methylsulphonyl)piperazin-1-yl]phenyl}-4,5-dihydro-3H-2,3-benzodiazepine-3-carboxamide]
9 | 60 nM | CNC(=O)N1N=C(c2ccc(-c3cccnc3Cl)cc2)c2cc(OC)c(OC)cc2C[C@@H]1C [Example 4.2, (S)-1-[4-(2-chloropyridin-3-yl)phenyl]-7,8-dimethoxy-N,4-dimethyl-4,5-dihydro-3H-2,3-benzodiazepine-3-carboxamide]

Continued, compound first:

Row | Structure (SMILES) | IC50
10 | CNC(=O)N1N=C(c2ccc(N3CCCS3(=O)=O)cc2)c2cc(OC)c(OC)cc2CC1C (racemic) [Example 244, (±)-1-[4-(1,1-Dioxido-1,2-thiazolidin-2-yl)phenyl]-7,8-dimethoxy-N,4-dimethyl-4,5-dihydro-3H-2,3-benzodiazepine-3-carboxamide] | 30 nM
11 | CCC1Cc2cc(OC)c(OC)cc2C(c2ccc(N3CCC(O)CC3)cc2)=NN1C(=O)NC (racemic) [Example 207, (±)-4-ethyl-1-[4-(4-hydroxypiperidin-1-yl)phenyl]-7,8-dimethoxy-N-methyl-4,5-dihydro-3H-2,3-benzodiazepine-3-carboxamide] | 1220 nM
12 | CNC(=O)N1N=C(c2ccc(-c3ccccc3C(=O)O)cc2)c2cc(OC)c(OC)cc2CC1C (racemic) [Example 6, (±)-4′-{7,8-dimethoxy-4-methyl-3-[(methylamino)carbonyl]-4,5-dihydro-3H-2,3-benzodiazepin-1-yl}biphenyl-2-carboxylic acid] | 910 nM
13 | CCC1Cc2cc(OC)c(OC)cc2C(c2ccc(N3CCOCC3=O)cc2)=NN1C(=O)NC (racemic) [Example 226, (±)-4-ethyl-7,8-dimethoxy-N-methyl-1-[4-(3-oxomorpholin-4-yl)phenyl]-4,5-dihydro-3H-2,3-benzodiazepine-3-carboxamide] | 8760 nM
14 | CNC(=O)N1N=C(c2ccc(N3CCC(=O)CC3)cc2)c2cc(OC)c(OC)cc2CC1C (racemic) [Example 196, (±)-7,8-dimethoxy-N,4-dimethyl-1-[4-(4-oxopiperidin-1-yl)phenyl]-4,5-dihydro-3H-2,3-benzodiazepine-3-carboxamide] | 90 nM
15 | CNC(=O)N1N=C(c2ccc(N3CCN(C)CC3)cc2)c2ccc(N3CCN(C)CC3)cc2CC1C (racemic) [Example 237, (±)-N,4-dimethyl-7-(4-methylpiperazin-1-yl)-1-[4-(4-methylpiperazin-1-yl)phenyl]-4,5-dihydro-3H-2,3-benzodiazepine-3-carboxamide] | 1070 nM
16 | CCC1Cc2cc(OC)c(OC)cc2C(c2ccc(N3CCOC3=O)cc2)=NN1C(=O)NC (racemic) [Example 228, (±)-4-ethyl-7,8-dimethoxy-N-methyl-1-[4-(2-oxo-1,3-oxazolidin-3-yl)phenyl]-4,5-dihydro-3H-2,3-benzodiazepine-3-carboxamide] | 1690 nM
17 | CCC(=O)N1N=C(c2ccc(N3CCN(C)CC3)cc2)c2cc(OC)c(OC)cc2CC1C (racemic) [Example 255, (±)-7,8-dimethoxy-4-methyl-1-[4-(4-methylpiperazin-1-yl)phenyl]-3-(1-oxopropyl)-4,5-dihydro-3H-2,3-benzodiazepine] | 240 nM
18 | CNC(=O)N1N=C(c2ccc(Cl)cc2)c2ccc(N3CCOCC3=O)cc2CC1C (racemic) [Example 232, (±)-1-(4-chlorophenyl)-N,4-dimethyl-7-(3-oxomorpholin-4-yl)-4,5-dihydro-3H-2,3-benzodiazepine-3-carboxamide] | 2840 nM
19 | CNC(=O)N1N=C(c2ccc(-c3c(C)nn(C)c3C)cc2)c2cc(OC(F)(F)F)ccc2CC1C (racemic) [Example 249, (±)-N,4-dimethyl-8-(trifluoromethoxy)-1-[4-(1,3,5-trimethyl-1H-pyrazol-4-yl)phenyl]-4,5-dihydro-3H-2,3-benzodiazepine-3-carboxamide] | 30 nM
20 | COc1cc2c(cc1OC)C(c1ccc(N3CCN(C)CC3)cc1)=NN(C(=O)NC1CC1)C(C)C2 (racemic) [Example 257] | 2000 nM
21 | CNC(=S)N1N=C(c2ccc(N3CCN(C)CC3)cc2)c2cc(OC)c(OC)cc2CC1C (racemic) [Example 258, (±)-7,8-Dimethoxy-N,4-dimethyl-1-[4-(4-methylpiperazin-1-yl)phenyl]-4,5-dihydro-3H-2,3-benzodiazepine-3-carbothioamide] | 190 nM
22 | CCC1Cc2cc(OC)c(OC)cc2C(c2ccc(N3CCN(C(C)=O)CC3)cc2)=NN1C(=O)NC (racemic) [Example 205, (±)-1-[4-(4-acetylpiperazin-1-yl)phenyl]-4-ethyl-7,8-dimethoxy-N-methyl-4,5-dihydro-3H-2,3-benzodiazepine-3-carboxamide] | 1080 nM
23 | CNC(=O)N1N=C(c2ccc(Cl)cc2)c2ccc(-c3ccncc3)cc2CC1C (racemic) [Example 240, (±)-1-(4-chlorophenyl)-N,4-dimethyl-7-(pyridin-4-yl)-4,5-dihydro-3H-2,3-benzodiazepine-3-carboxamide] | 4500 nM
24 | CCC1Cc2cc(OC)c(OC)cc2C(c2ccc(N3CCCC3=O)cc2)=NN1C(=O)NC (racemic) [Example 225, (±)-4-ethyl-7,8-dimethoxy-N-methyl-1-[4-(2-oxopyrrolidin-1-yl)phenyl]-4,5-dihydro-3H-2,3-benzodiazepine-3-carboxamide] | 1720 nM
